We go through 19 compounds from patent US11078216B2, “Bisaryl amides as NRF2 activators” (GLAXOSMITHKLINE INTELLECTUAL PROPERTY DEVELOPMENT LIMITED, priority 2016, dated 2021).

The test system of the assay is NRF2 (NQO1 activity as marker for NRF2 activation), BEAS-2B cells. Kind of assay: BEAS-2B NQO1 MTT Assay. Type of assay: cell-based. To be noted: Homo sapiens, EC50 of NQO1 specific activity induction, 48 hours incubation, read-out: EC50. The gist of the method:
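BEAS-2B cells were exposed to compound for 48 h at 37° C, 5% CO2, then lysed. NQO1 activity was measured kinetically by MTT reduction at 570 nm over 30 minutes; EC50 came from 3-parameter fit of Delta OD/min versus log concentration.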

The EC50 is the midpoint of the concentration-response curve. Regarding `CC[C@@H]1CN(Cc2cc([C@H](c3ccc4c(nnn4CC)c3C)C(C)(C)C(=O)Nc3cccnc3)ccc2C)S(=O)(=O)c2cccnc2O1` [Example 116, (R)-3-(3-(((R)-4-Ethyl-1,1-dioxido-3,4-dihydro-2H-pyrido[2,3-b][1,4,5]oxathiazepin-2-yl)methyl)-4-methylphenyl)-3-(1-ethyl-4-methyl-1H-benzo[d][1,2,3]triazol-5-yl)-2,2-dimethyl-N-(pyridin-3-yl)propanamide], the EC50 was 10 to 100 nM.
The same measure for `CC[C@@H]1CN(Cc2cc([C@@H](c3ccc4c(nnn4CC)c3C)C(C)(C)C(=O)Nc3cncnc3)ccc2C)S(=O)(=O)c2cccnc2O1` [Example 117, (S)-3-(3-(((R)-4-Ethyl-1,1-dioxido-3,4-dihydro-2H-pyrido[2,3-b][1,4,5]oxathiazepin-2-yl)methyl)-4-methylphenyl)-3-(1-ethyl-4-methyl-1H-benzo[d][1,2,3]triazol-5-yl)-2,2-dimethyl-N-(pyrimidin-5-yl)propanamide]: 1 to 10 nM; for `CC[C@@H]1CN(Cc2cc([C@H](CC(=O)Nc3cnccn3)c3ccc4c(nnn4CC)c3C)ccc2C)S(=O)(=O)c2cccnc2O1` [Example 118, (S)-3-(3-(((R)-4-Ethyl-1,1-dioxido-3,4-dihydro-2H-pyrido[2,3-b][1,4,5]oxathiazepin-2-yl)methyl)-4-methylphenyl)-3-(1-ethyl-4-methyl-1H-benzo[d][1,2,3]triazol-5-yl)-N-(pyrazin-2-yl)propanamide]: 10 to 100 nM.
Regarding `CC[C@H]1Cc2ncccc2S(=O)(=O)N(Cc2cc([C@@H](c3ccc4c(nnn4CC)c3C)C(C)(C)C(=O)Nc3cccnc3)ccc2C)C1` [Example 119, (S)-3-(3-(((S)-4-Ethyl-1,1-dioxido-4,5-dihydropyrido[2,3-f][1,2]thiazepin-2(3H)-yl)methyl)-4-methylphenyl)-3-(1-ethyl-4-methyl-1H-benzo[d][1,2,3]triazol-5-yl)-2,2-dimethyl-N-(pyridin-3-yl)propanamide], the 50% effective concentration (EC50) fell in the range of 1 to 10 nM.
With `CC[C@@H]1CN(Cc2cc([C@@H](c3ccc4c(nnn4CC)c3C)C(C)(C)C(=O)Nc3cccnc3)ccc2C)S(=O)(=O)c2cccnc2O1` [Example 120, (S)-3-(3-(((R)-4-Ethyl-1,1-dioxido-3,4-dihydro-2H-pyrido[2,3-b][1,4,5]oxathiazepin-2-yl)methyl)-4-methylphenyl)-3-(1-ethyl-4-methyl-1H-benzo[d][1,2,3]triazol-5-yl)-2,2-dimethyl-N-(pyridin-3-yl)propanamide], the 50% effective concentration (EC50) fell in the range of 1 to 10 nM.
`CC[C@@H]1CN(Cc2cc([C@H](CC(=O)Nc3ncccn3)c3ccc4c(nnn4CC)c3C)ccc2C)S(=O)(=O)c2cccnc2O1` [Example 121, (S)-3-(3-(((R)-4-Ethyl-1,1-dioxido-3,4-dihydro-2H-pyrido[2,3-b][1,4,5]oxathiazepin-2-yl)methyl)-4-methylphenyl)-3-(1-ethyl-4-methyl-1H-benzo[d][1,2,3]triazol-5-yl)-N-(pyrimidin-2-yl)propanamide]: the EC50 lay within 100 to 1000 nM.
The same measure for `CC[C@@H]1CN(Cc2cc([C@H](CC(=O)Nc3cccnn3)c3ccc4c(nnn4CC)c3C)ccc2C)S(=O)(=O)c2cccnc2O1` [Example 122, (S)-3-(3-(((R)-4-Ethyl-1,1-dioxido-3,4-dihydro-2H-pyrido[2,3-b][1,4,5]oxathiazepin-2-yl)methyl)-4-methylphenyl)-3-(1-ethyl-4-methyl-1H-benzo[d][1,2,3]triazol-5-yl)-N-(pyridazin-3-yl)propanamide]: 100 to 1000 nM.
The same measure for `CC[C@@H]1CN(Cc2cc([C@H](CC(=O)Nc3cnc(OC)nc3)c3ccc4c(nnn4CC)c3C)ccc2C)S(=O)(=O)c2cccnc2O1` [Example 123, (S)-3-(3-(((R)-4-Ethyl-1,1-dioxido-3,4-dihydro-2H-pyrido[2,3-b][1,4,5]oxathiazepin-2-yl)methyl)-4-methylphenyl)-3-(1-ethyl-4-methyl-1H-benzo[d][1,2,3]triazol-5-yl)-N-(2-methoxypyrimidin-5-yl)propanamide]: 10 to 100 nM; for `CCOCCOc1ncc(NC(=O)C(C)(C)[C@@H](c2ccc(C)c(CN3C[C@@H](CC)Oc4ncccc4S3(=O)=O)c2)c2ccc3c(nnn3CC)c2C)cn1` [Example 124, (S)—N-(2-(2-Ethoxyethoxy)pyrimidin-5-yl)-3-(3-(((R)-4-ethyl-1,1-dioxido-3,4-dihydro-2H-pyrido[2,3-b][1,4,5]oxathiazepin-2-yl)methyl)-4-methylphenyl)-3-(1-ethyl-4-methyl-1H-benzo[d][1,2,3]triazol-5-yl)-2,2-dimethylpropanamide]: 1 to 10 nM.
For `CC[C@@H]1CN(Cc2cc([C@H](CC(=O)Nc3cnc(N4CCCCC4)nc3)c3ccc4c(nnn4CC)c3C)ccc2C)S(=O)(=O)c2cccnc2O1` [Example 125, (S)-3-(3-(((R)-4-Ethyl-1,1-dioxido-3,4-dihydro-2H-pyrido[2,3-b][1,4,5]oxathiazepin-2-yl)methyl)-4-methylphenyl)-3-(1-ethyl-4-methyl-1H-benzo[d][1,2,3]triazol-5-yl)-N-(2-(piperidin-1-yl)pyrimidin-5-yl)propanamide] the value was 10 to 100 nM; for `CC[C@@H]1CN(Cc2cc([C@H](CC(=O)Nc3cnc(NC)nc3)c3ccc4c(nnn4CC)c3C)ccc2C)S(=O)(=O)c2cccnc2O1` [Example 126, (S)-3-(3-(((R)-4-Ethyl-1,1-dioxido-3,4-dihydro-2H-pyrido[2,3-b][1,4,5]oxathiazepin-2-yl)methyl)-4-methylphenyl)-3-(1-ethyl-4-methyl-1H-benzo[d][1,2,3]triazol-5-yl)-N-(2-(methylamino)pyrimidin-5-yl)propanamide], 100 to 1000 nM.
Consider `CC[C@@H]1CN(Cc2cc([C@H](CC(=O)Nc3cnc(NC(CO)CO)nc3)c3ccc4c(nnn4CC)c3C)ccc2C)S(=O)(=O)c2cccnc2O1` [Example 127, (S)—N-(2-((1,3-Dihydroxypropan-2-yl)amino)pyrimidin-5-yl)-3-(3-(((R)-4-ethyl-1,1-dioxido-3,4-dihydro-2H-pyrido[2,3-b][1,4,5]oxathiazepin-2-yl)methyl)-4-methylphenyl)-3-(1-ethyl-4-methyl-1H-benzo[d][1,2,3]triazol-5-yl)propanamide], for which the EC50 was in the range of 1000 to 10000 nM.
Turning to `CC[C@@H]1CN(Cc2cc([C@@H](c3ccc4c(nnn4CC)c3C)C(C)(C)C(=O)Nc3cnc(NC(CO)CO)nc3)ccc2C)S(=O)(=O)c2cccnc2O1` [Example 128, (S)-N-(2-((1,3-Dihydroxypropan-2-yl)amino)pyrimidin-5-yl)-3-(3-(((R)-4-ethyl-1,1-dioxido-3,4-dihydro-2H-pyrido[2,3-b][1,4,5]oxathiazepin-2-yl)methyl)-4-methylphenyl)-3-(1-ethyl-4-methyl-1H-benzo[d][1,2,3]triazol-5-yl)-2,2-dimethylpropanamide], the EC50 is 100 to 1000 nM.
For `CC[C@@H]1CN(Cc2cc([C@@H](c3ccc4c(nnn4CC)c3C)C(C)(C)C(=O)Nc3cnc(OCC(N)CO)nc3)ccc2C)S(=O)(=O)c2cccnc2O1` (stereo partly drawn) [Example 129, (3S)-N-(2-(2-Amino-3-hydroxypropoxy)pyri-midin-5-yl)-3-(3-(((R)-4-ethyl-1,1-dioxido-3,4-dihydro-2H-pyrido[2,3-b][1,4,5]oxathiazepin-2-yl)methyl)-4-methylphenyl)-3-(1-ethyl-4-methyl-1H-benzo[d][1,2,3]triazol-5-yl)-2,2-dimethylpropanamide] the value was 100 to 1000 nM; for `CC[C@@H]1CN(Cc2cc([C@@H](c3ccc4c(nnn4CC)c3C)C(C)(C)C(=O)Nc3cnc(N(C)C)nc3)ccc2C)S(=O)(=O)c2cccnc2O1` [Example 130, (S)-N-(2-(Dimethylamino)pyri-midin-5-yl)-3-(3-(((R)-4-ethyl-1,1-dioxido-3,4-dihydro-2H-pyrido[2,3-b][1,4,5]oxathiazepin-2-yl)methyl)-4-methylphenyl)-3-(1-ethyl-4-methyl-1H-benzo[d][1,2,3]triazol-5-yl)-2,2-dimethylpropanamide], 1 to 10 nM.
Take `CC[C@@H]1CN(Cc2cc([C@@H](c3ccc4c(nnn4CC)c3C)C(C)(C)C(=O)Nc3cnc(S(C)(=O)=O)nc3)ccc2C)S(=O)(=O)c2cccnc2O1` [Example 131, (S)-3-(3-(((R)-4-Ethyl-1,1-dioxido-3,4-dihydro-2H-pyrido[2,3-b][1,4,5]oxathiazepin-2-yl)methyl)-4-methylphenyl)-3-(1-ethyl-4-methyl-1H-benzo[d][1,2,3]triazol-5-yl)-2,2-dimethyl-N-(2-(methylsulfonyl)pyrimidin-5-yl)propanamide]: the EC50 fell in the range of 10 to 100 nM.
For `CC[C@@H]1CN(Cc2cc([C@@H](c3ccc4c(nnn4CC)c3C)C(C)(C)NC(C)=O)ccc2C)S(=O)(=O)c2ccccc2O1` [Example 132, N—((S)-1-(3-(((R)-4-Ethyl-1,1-dioxido-3,4-dihydro-2H-benzo[b][1,4,5]oxathiazepin-2-yl)methyl)-4-methylphenyl)-1-(1-ethyl-4-methyl-1H-benzo[d][1,2,3]triazol-5-yl)-2-methylpropan-2-yl)acetamide] the value was 10 to 100 nM; for `CC[C@@H]1CN(Cc2cc([C@@H](c3ccc4c(nnn4CC)c3C)C(C)(C)NC(=O)CCCNC(C)=O)ccc2C)S(=O)(=O)c2ccccc2O1` [Example 133, 4-Acetamido-N-((S)-1-(3-(((R)-4-ethyl-1,1-dioxido-3,4-dihydro-2H-benzo[b][1,4,5]oxathiazepin-2-yl)methyl)-4-methylphenyl)-1-(1-ethyl-4-methyl-1H-benzo[d][1,2,3]triazol-5-yl)-2-methylpropan-2-yl)butanamide], 1000 to 10000 nM; for `CC[C@@H]1CN(Cc2cc([C@@H](c3ccc4c(nnn4CC)c3C)C(C)(C)NC(=O)C3CCOC3)ccc2C)S(=O)(=O)c2ccccc2O1` (stereo partly drawn) [Example 134, N-((S)-1-(3-(((R)-4-Ethyl-1,1-dioxido-3,4-dihydro-2H-benzo[b][1,4,5]oxathiazepin-2-yl)methyl)-4-methylphenyl)-1-(1-ethyl-4-methyl-1H-benzo[d][1,2,3]triazol-5-yl)-2-methylpropan-2-yl)tetrahydrofuran-3-carboxamide], 10 to 100 nM.
